These results are taken from PubChem BioAssay AID1259407 (Chemical Carcinogenesis Research Information System (CCRIS), 2018).

Each structure is given as a SMILES string. The source made the active and inactive calls. How the calls were made is not given here.

The subject of this series is CCRIS mutagenicity, Ames/micronucleus/aberration tests. In words: CCRIS mutagenicity studies.
The mark [1] stands for this setting: Test System: AMES SALMONELLA TYPHIMURIUM, Strain/Indicator: TA100, Metabolic Activation: NONE, Method: PREINCUBATION

For `CCN(CC)CC#CCOC(=O)C(O)(c1ccccc1)C1CCCCC1` (configuration not stated), the mutagenic call reads like this: (Test System: AMES SALMONELLA TYPHIMURIUM, Strain/Indicator: TA98, Metabolic Activation: NONE) “inactive; negative”; (Test System: AMES SALMONELLA TYPHIMURIUM, Strain/Indicator: TA98, Metabolic Activation: S-9) “inactive; negative”; (Test System: AMES SALMONELLA TYPHIMURIUM, Strain/Indicator: TA100, Metabolic Activation: NONE) “inactive; negative”; (Test System: AMES SALMONELLA TYPHIMURIUM, Strain/Indicator: TA100, Metabolic Activation: S-9) “inactive; negative”; (Test System: AMES SALMONELLA TYPHIMURIUM, Strain/Indicator: TA1535, Metabolic Activation: NONE) “inactive; negative”; (Test System: AMES SALMONELLA TYPHIMURIUM, Strain/Indicator: TA1535, Metabolic Activation: S-9) “inactive; negative”. For the same molecule, the mutagenic call is, setting by setting: (Test System: AMES SALMONELLA TYPHIMURIUM, Strain/Indicator: TA1537, Metabolic Activation: NONE) “inactive; negative”; (Test System: AMES SALMONELLA TYPHIMURIUM, Strain/Indicator: TA1537, Metabolic Activation: S-9) “inactive; negative”; (Test System: AMES SALMONELLA TYPHIMURIUM, Strain/Indicator: TA1538, Metabolic Activation: NONE) “inactive; negative”; (Test System: AMES SALMONELLA TYPHIMURIUM, Strain/Indicator: TA1538, Metabolic Activation: S-9) “inactive; negative”; (Test System: E. COLI, Strain/Indicator: WP2 UVRA, Metabolic Activation: NONE) “inactive; negative”; (Test System: E. COLI, Strain/Indicator: WP2 UVRA, Metabolic Activation: S-9) “inactive; negative”.

As to `O=C1OC(c2ccc(O)cc2)(c2ccc(O)cc2)c2ccccc21`, the mutagenic call (End Point: In vivo micronucleus, Test System: Peripheral blood normochromatic erythrocytes, Species: Mouse, Strain/Sex: Haploinsufficient p16(Ink4a)p19(Arf), Route: Oral) is “active; positive”; the mutagenic call (End Point: In vivo micronucleus, Test System: Polychromatic erythrocytes, Species: Mouse, Strain/Sex: C57BL/6TacBr-[KO]p53[TSG-p53], Route: Oral) was “active; positive at all days”; the mutagenic call (Test System: AMES SALMONELLA TYPHIMURIUM, Strain/Indicator: TA98, Metabolic Activation: HAMSTER, LIVER, S-9, AROCLOR 1254 (10%), Method: PREINCUBATION) was “inactive; negative”; the mutagenic call (Test System: AMES SALMONELLA TYPHIMURIUM, Strain/Indicator: TA98, Metabolic Activation: NONE, Method: PREINCUBATION) was “inactive; negative”; the mutagenic call (Test System: AMES SALMONELLA TYPHIMURIUM, Strain/Indicator: TA98, Metabolic Activation: RAT, LIVER, S-9, AROCLOR 1254 (10%), Method: PREINCUBATION) was “inactive; negative”; the mutagenic call (Test System: AMES SALMONELLA TYPHIMURIUM, Strain/Indicator: TA100, Metabolic Activation: HAMSTER, LIVER, S-9, AROCLOR 1254 (10%), Method: PREINCUBATION) was “inactive; negative”. Moreover, the mutagenic call runs as follows: under setting [1], “inactive; negative”; (Test System: AMES SALMONELLA TYPHIMURIUM, Strain/Indicator: TA100, Metabolic Activation: RAT, LIVER, S-9, AROCLOR 1254 (10%), Method: PREINCUBATION) “inactive; negative”; (Test System: AMES SALMONELLA TYPHIMURIUM, Strain/Indicator: TA1535, Metabolic Activation: HAMSTER, LIVER, S-9, AROCLOR 1254 (10%), Method: PREINCUBATION) “inactive; negative”; (Test System: AMES SALMONELLA TYPHIMURIUM, Strain/Indicator: TA1535, Metabolic Activation: NONE, Method: PREINCUBATION) “inactive; negative”; (Test System: AMES SALMONELLA TYPHIMURIUM, Strain/Indicator: TA1535, Metabolic Activation: RAT, LIVER, S-9, AROCLOR 1254 (10%), Method: PREINCUBATION) “inactive; negative”; (Test System: AMES SALMONELLA TYPHIMURIUM, Strain/Indicator: TA1537, Metabolic Activation: HAMSTER, LIVER, S-9, AROCLOR 1254 (10%), Method: PREINCUBATION) “inactive; negative”. The mutagenic call is “inactive; negative” (Test System: AMES SALMONELLA TYPHIMURIUM, Strain/Indicator: TA1537, Metabolic Activation: NONE, Method: PREINCUBATION); “inactive; negative” (Test System: AMES SALMONELLA TYPHIMURIUM, Strain/Indicator: TA1537, Metabolic Activation: RAT, LIVER, S-9, AROCLOR 1254 (10%), Method: PREINCUBATION); “active; positive” (Test System: Syrian hamster embryo cells, Strain/Indicator: HPRT/6-thioguanine, Method: Plate).

Regarding `CCCCCc1ccco1`, the mutagenic call reads like this: (Test System: CHINESE HAMSTER V-79, Strain/Indicator: V-79 (HPRT)/6-THIOGUANINE, Metabolic Activation: NONE, Method: STANDARD PLATE) “inactive; negative”; (Test System: CHINESE HAMSTER V-79, Strain/Indicator: V-79 (HPRT)/6-THIOGUANINE, Metabolic Activation: RAT LIVER S-9, Method: STANDARD PLATE) “inactive; negative”.

For the molecule `O=P(OCC(Br)CBr)(OCC(Br)CBr)OCC(Br)CBr` (configuration not stated), the mutagenic call is “inactive; negative” under setting [1]; “inactive; negative” (Test System: AMES SALMONELLA TYPHIMURIUM, Strain/Indicator: TA100, Metabolic Activation: NONE, Method: STANDARD PLATE); “active; positive” (Test System: AMES SALMONELLA TYPHIMURIUM, Strain/Indicator: TA100, Metabolic Activation: RAT LIVER S-9, PHENOBARBITAL, Method: PREINCUBATION); “active; positive” (Test System: AMES SALMONELLA TYPHIMURIUM, Strain/Indicator: TA100, Metabolic Activation: RAT, LIVER, HEPATOCYTES, PHENOBARBITAL, Method: PREINCUBATION); “active; positive” (Test System: AMES SALMONELLA TYPHIMURIUM, Strain/Indicator: TA100, Metabolic Activation: RAT, LIVER, HEPATOCYTES, Method: PREINCUBATION); “active; positive” (Test System: AMES SALMONELLA TYPHIMURIUM, Strain/Indicator: TA100, Metabolic Activation: RAT, LIVER, MICROSOMES, AROCLOR 1254, Method: STANDARD PLATE). For the same molecule, the mutagenic call (Test System: AMES SALMONELLA TYPHIMURIUM, Strain/Indicator: TA100, Metabolic Activation: RAT, LIVER, MICROSOMES, PHENOBARBITAL, Method: PREINCUBATION) is “active; positive”; the mutagenic call (Test System: AMES SALMONELLA TYPHIMURIUM, Strain/Indicator: TA100, Metabolic Activation: RAT, LIVER, MICROSOMES, Method: PREINCUBATION) is “active; positive”; the mutagenic call (Test System: AMES SALMONELLA TYPHIMURIUM, Strain/Indicator: TA100, Metabolic Activation: RAT, LIVER, S-9, AROCLOR 1254, Method: STANDARD PLATE) was “active; positive”; the mutagenic call (Test System: AMES SALMONELLA TYPHIMURIUM, Strain/Indicator: TA104, Metabolic Activation: RAT LIVER S-9, PHENOBARBITAL, Method: PREINCUBATION) was “active; positive”; the mutagenic call (Test System: AMES SALMONELLA TYPHIMURIUM, Strain/Indicator: TA1535, Metabolic Activation: RAT, LIVER, S-9, AROCLOR 1254, Method: STANDARD PLATE) was “active; positive”; the mutagenic call (Test System: CHINESE HAMSTER V-79, Strain/Indicator: V-79/6-THIOGUANINE, Metabolic Activation: RAT, LIVER, MICROSOMES, PHENOBARBITAL) is “active; positive”. In addition, the mutagenic call reads like this: (Test System: E. COLI, Strain/Indicator: WP2 UVRA, Metabolic Activation: MOUSE, LIVER, S-9, Method: STANDARD PLATE) “inactive; negative”; (Test System: E. COLI, Strain/Indicator: WP2 UVRA, Metabolic Activation: NONE, Method: STANDARD PLATE) “inactive; negative”; (Test System: E. COLI, Strain/Indicator: WP2 UVRA, Metabolic Activation: RAT, LIVER, S-9, Method: STANDARD PLATE) “inactive; negative”; (Test System: UDS RAT HEPATOCYTES, Strain/Indicator: THY INCORP, Metabolic Activation: NONE) “active; positive”; (Test System: UDS RODENT HEPATOCYTES, Strain/Indicator: THY INCORP (NON-S-PHASE), Metabolic Activation: RAT, LIVER, HEPATOCYTES, PHENOBARBITAL, Method: LIQUID SCINTILLATION COUNTING) “active; positive”; (Test System: UDS RODENT HEPATOCYTES, Strain/Indicator: THY INCORP (NON-S-PHASE), Metabolic Activation: RAT, LIVER, HEPATOCYTES, Method: LIQUID SCINTILLATION COUNTING) “active; positive”.
